Source: patent publication US20050182129A1, “Hair growth tonic” (priority 2002, published 2005)
Entries after “also recorded” stand apart in the source; their conditions may differ.

Key:
WNT-5A mRNA [1] = test: Decrease in WNT-5A mRNA in monkey skin organ culture (RT-PCR), Test Example 6; assay type: cell-based, Cynomolgus monkey (Macaca fascicularis); settings: 40-cycle PCR, hair follicles, 11th day of culturing, FIG. 4
Protocol: (§1) The dorsal skin of a Cynomolgus monkey (Macaca fascicularis) (male, 6 years old) was collected and divided into pieces (5 mm×8 mm) under a stereoscopic microscope. Then each skin tissue piece was cultured in William's Medium E (Invitrogen) to which no compound was added or Compound 7 or Compound 3 was added and which contained 10 μg/ml insulin (Sigma) and 10 ng/ml hydrocortisone (Kurabo).
On the 11th day of the culturing, hair follicles were separated from each skin tissue piece and total RNAs were extracted by using TRIzol reagent (Invitrogen). Using 200 ng portions of the total RNAs, 0.4 μM portions of primers specific to WNT-5A or glyceraldehyde3-phosphate dehydrogenase (GAPDH) [WNT-5A sense: AATGTCTTCCAAGTTCTTCCTAGTGGC (SEQ ID NO-8), WNT-5A antisense: GATGTCGGAATTGATACTGGCA (SEQ ID NO:9), GAPDH sense: ACCACAGTCC ATGCCATCAC (SEQ ID NO:10) and GAPDH antisense: TCCACCACCC TGTTGCTGTA (SEQ ID NO:11)] and SUPERSCRIPT One-Step RT-PCT with PLATINUM Taq (Invitrogen), RT-PCR was cared out in accordance with the protocol attached to SUPERSCRIPT One-Step RT-PCT with PLATINUM Taq. In brief, first strand synthesis was carried out at 50° C. for 30 minutes in a reaction system of 25 μl in total volume in accordance with the protocol attached to SUPERSCRIPT One-Step RT-PCT with PLATINUM Taq. […]

GAPDH mRNA = GAPDH mRNA amount (QuantiGene bDNA method), Test Example 4; assay type: cell-based; settings: Human dermal papilla cell; human dermal papilla cells, 24 hours, concentration at which the mRNA amount is halved, average of 2 wells
Protocol: (§2) Human dermal papilla cells, which were purchased from Toyobo, were cultured in MEM (Invitrogen) containing 12% FBS.
(§3) The dermal papilla cells in passage 5 were sowed in a 96-well plate to give a density of 1×10^4 cells/well and cultured overnight. Then, the medium was replaced by a medium to which no compound was added or a medium containing the compounds and the culture was continued for additional 24 hours. After the completion of the culture, WNT-5A or GAPDH mRNA amount was measured by using QuantiGene High Volume Kit (Bayer Medical) by the branched DNA (bDNA) signal amplification method (Drug Metabolism and Disposition, 28(5), 608-616 (2000)). In accordance with the protocol attached to QuantiGene High Volume Kit, cells were lysed by using Lysis Mixture and the lysis solution was added to capture plate. Next, a set of probes specific to WNT-5A or GPDH was added and allowed to react at 53° C. for 20 hours. After washing the plate by using 0.1×SSC containing 0.03% lauryl sulfate, an amplification probe comprising bDNA was added and allowed to react at 46° C. for 1 hour. After washing the plate, a labeling probe labeled with alkaline phosphatase was added and allowed to react at 46° C. for 1 hour. After washing the plate, a substrate Lumi-Phos Plus was added and allowed to react at 46° C. for 30 minutes. Then, the luminescence was measured by using WALLAC 1420ARVOsx.
As GAPDH-specific probe set, use was made of bDNA probe set for human GAPDH (XenoTech LLC, B0960).
(§4) The amounts of WNT-5A and GAPDH mRNAs are expressed in relative values (%) to the control case of adding of no compound and the concentration of a compound at which the mRNA amount is halved (IC50) is calculated as an index of WNT-5A mRNA decreasing activity of the corresponding compound.

[2] = test system: stumptailed macaque suffering from alopecia; test: Hair growth test on stumptailed macaque, Test Example 9; assay type: in vivo, stumptailed macaque (Macaca arctoides); settings: lotion containing 0.3% compound
Protocol: To the forehead of a stumptailed macaque (Macaca arctoides) (male, 14 years old) suffering from alopecia, 1 mL of a lotion containing 0.3% Compound 7 was applied once a day 5 times per week for 6 months. Before the initiation of the application, the alopecia site in the forehead was marked by tattoo. The skin part including the tattoo was photographed before the initiation of the application and after applying for 6 months.

[3] = test system: Human dermal papilla cells; test: Dermal papilla cell growth promoting activity (WST-1, spheroid culture), Test Example 5; assay type: cell-based; settings: for activity at 1 µM / activity at 4 µM / activity at 16 µM: Homo sapiens, Human dermal papilla cell, 72 hours, average of 3 wells, read-out: ΔO.D. 450 nm/620 nm (% of control)
Protocol: as §2
The dermal papilla cells in passage 5 were sowed in a 96-well plate for spheroid culture to give a density of 1.5×10^4 cells/well and cultured overnight. Then, the medium was replaced by a medium to which no compound was added or a medium containing the compound and the culture was continued for additional 72 hours. After the completion of the culture, cells were counted by using a Cell Counting Kit (Wako Pure Chemicals). Five hours before the completion of the culture, WST-1 reagent at 1/10 amount per medium was added to each medium and then the optical density (O.D. 450 nm/620 nm) of the medium was measured at the completion of the culture. A positive correlation was observed between the cell number and optical density within the range of 0.25 to 4×10^4 cells/well.
In this table, each numerical value means an average of 6 wells (control group) or 3 wells (test groups). To compare the control group to the test groups, Student's t-test was employed: • *:P<0.05, **:P<0.01, ***:P<0.001.

[4] = test system: hair follicles in monkey skin organ culture; test: Enlargement in hair bulb diameter in monkey skin organ culture, Test Example 8; assay type: cell-based, Cynomolgus monkey (Macaca fascicularis); settings: culturing for 30 days, FIGS. 6 and 7
Protocol: as §1, with “μg/ml of” for “μg/ml”, “ng/ml of” for “ng/ml”
On the 30th day of the culturing, all follicles contained in each skin tissue piece were separated and the diameter of bulbs was measured under a stereoscopic microscope.
FIGS. 6 and 7 show the results. In these figures, each numerical value means mean±S.E. of bulb diameters of all follicles contained in each skin tissue piece. To compare the control group with the test groups, Student's t-test was employed: • *:P<0.05.

WNT-5A mRNA [5] = test: Activity of decreasing WNT-5A mRNA amount (QuantiGene bDNA method), Test Example 4; assay type: cell-based; settings: Homo sapiens, Human dermal papilla cell, 24 h, human dermal papilla cells, concentration at which the mRNA amount is halved, average of 2 wells
Protocol: as §2, §3
The WNT-5A-specific probe set was designed based on the sequence of the coding region of human WNT-5A mRNA. As capture extenders (CEs), 10 probes (SEQ ID NOs:12 to 21) were used; as label extenders (LEs), 31 probes (SEQ ID NOs:22 to 52) were employed; and as blockers, […] (SEQ ID NOs:53 to 60) were employed.
as §4

With `C[C@@H]1C[C@@H]2O[C@H]2CC/C=C/[C@H](O)Cc2c(Cl)c(O)cc(O)c2C(=O)O1` [Compound 7] the “amplified WNT-5A cDNA fragment” value (WNT-5A mRNA [1]) was “remarkably decreased”, the IC50 (GAPDH mRNA) was over 120 µM and the “alopecia in the forehead” value ([2]; 1 mL once a day 5 times per week for 6 months, FIG. 8) was “clearly ameliorated”. For the same compound, the “thick terminal hairs” value ([2]; after applying for 6 months) was “increased”, the “vellus hairs” value ([2]; after applying for 6 months) was “decreased” and the activity at 1 µM [3] was 82.6 ± 3.9%. For the same compound, the activity at 4 µM [3] was 170 ± 10.4%, the activity at 16 µM [3] was 195 ± 12.7% and the “growth of dermal papilla cells” value ([3]; no concentration stated) was “excellent effect of promoting the growth”. The “average bulb diameter of the follicles vs control” value [4] was “enlarges the hair bulb diameter; also recorded: significantly higher” and the IC50 (WNT-5A mRNA [5]) was 4.07 µM.
`C[C@@H]1C[C@@H]2O[C@H]2CC/C=C/C(=O)Cc2c(Cl)c(O)cc(O)c2C(=O)O1` [Compound 3] was tested, and the “amplified WNT-5A cDNA fragment” value (WNT-5A mRNA [1]) was “remarkably decreased”, the IC50 (GAPDH mRNA) was 58 µM and the activity at 1 µM [3] was 92.9 ± 1.6%. For the same compound, the activity at 4 µM [3] was 92.9 ± 9.9%, the activity at 16 µM [3] was 244 ± 33.4% and the “average bulb diameter of the follicles vs control” value [4] was “significantly higher; also recorded: enlarges the hair bulb diameter”. The IC50 (WNT-5A mRNA [5]) was 3.16 µM.
